From patent publication US12655116B2, “Substituted isophthalic acid diamides” (Bayer Aktiengesellschaft, priority 2020, dated 2026)

Key:
MATIN [1] = experiment: Pre-emergence herbicidal action against MATIN; format: in vivo, Matricaria inodora
In short: (§1)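 Sandy loam pots, seeds covered with soil, then surface-treated with WP or EC formulations at 600–800 l/ha water plus 0.2% wetting agent. Greenhouse, 3 weeks. Percent damage vs untreated controls.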

AVEFA [2] = experiment: Pre-emergence herbicidal action against AVEFA; format: in vivo, Avena fatua; conditions: 80 g/ha, pre-emergence
In short: as §1

AMARE [3] = experiment: Pre-emergence herbicidal action against AMARE; format: in vivo, Amaranthus retroflexus
In short: as §1

SETVI [4] = experiment: Post-emergence herbicidal action against SETVI; format: in vivo, Setaria viridis
In short: (§2)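 Visual % rating (0% = as untreated, 100% = dead) ~3 wk after spraying one-leaf-stage plants grown in sandy loam; WP/EC in water at 600–800 l/ha, 0.2% wetting agent.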

PHBPU [5] = experiment: Pre-emergence herbicidal action against PHBPU; format: in vivo, Pharbitis purpurea; conditions: dosage 80 g/ha
In short: as §1

VIOTR [6] = experiment: Pre-emergence herbicidal action against VIOTR; format: in vivo, Viola tricolor
In short: as §1

ECHCG [7] = experiment: Pre-emergence herbicidal action against ECHCG; format: in vivo, Echinochloa crus-galli
In short: as §1

VERPE [8] = experiment: Post-emergence herbicidal action against VERPE; format: in vivo, Veronica persica; conditions: 20 g/ha
In short: as §2

AVEFA [9] = experiment: Post-emergence herbicidal action against AVEFA; format: in vivo, Avena fatua; conditions: 20 g/ha, visual assessment about 3 weeks after treatment, 100% = plants have died, 0% = like control plants
In short: as §2

ECHCG [10] = experiment: Post-emergence herbicidal action against ECHCG; format: in vivo, Echinochloa crus-galli
In short: as §2

ABUTH [11] = experiment: Pre-emergence herbicidal action against ABUTH; format: in vivo, Abutilon theophrasti; conditions: for Pre-emergence action against ABUTH (herbicidal activity): 80 g/ha, scored visually after 3 weeks vs untreated controls (100% = plants have died, 0% = like control plants); for Pre-emergence action against ABUTH (herbicidal activity in percent): dosage 20 g/ha, scored visually after 3 weeks vs untreated controls, 100% = plants have died, 0% = like control plants
In short: as §1

ALOMY [12] = experiment: Post-emergence herbicidal action against ALOMY; format: in vivo, Alopecurus myosuroides; conditions: dosage 20 g/ha, visual assessment about 3 weeks after treatment vs untreated controls
In short: as §2

PHBPU [13] = experiment: Post-emergence herbicidal action against PHBPU; format: in vivo, Pharbitis purpurea
In short: as §2

SETVI [14] = experiment: Pre-emergence herbicidal action against SETVI; format: in vivo, Setaria viridis
In short: as §1

ABUTH [15] = experiment: Post-emergence herbicidal action against ABUTH; format: in vivo, Abutilon theophrasti; conditions: visual assessment about 3 weeks after treatment vs untreated controls
In short: as §2

AMARE [16] = experiment: Post-emergence herbicidal action against AMARE; format: in vivo, Amaranthus retroflexus; conditions: 20 g/ha, visual assessment about 3 weeks after treatment, 100% = plants have died, 0% = like control plants
In short: as §2

POLCO = experiment: Pre-emergence herbicidal action against POLCO; format: in vivo, Polygonum convolvulus; conditions: dosage 80 g/ha
In short: as §1

VERPE [17] = experiment: Pre-emergence herbicidal action against VERPE; format: in vivo, Veronica persica; conditions: dosage 80 g/ha
In short: as §1

VIOTR [18] = experiment: Post-emergence herbicidal action against VIOTR; format: in vivo, Viola tricolor
In short: as §2

DIGSA [19] = experiment: Post-emergence herbicidal action against DIGSA; format: in vivo, Digitaria sanguinalis; conditions: for Post-emergence action against DIGSA: 20 g/ha
In short: as §2

ALOMY [20] = experiment: Pre-emergence herbicidal action against ALOMY; format: in vivo, Alopecurus myosuroides; conditions: 80 g/ha, pre-emergence, scored visually after 3 weeks vs untreated controls (100% = plants have died, 0% = like control plants)
In short: as §1

MATIN [21] = experiment: Post-emergence herbicidal action against MATIN; format: in vivo, Matricaria inodora
In short: as §2

DIGSA [22] = experiment: Pre-emergence herbicidal action against DIGSA; format: in vivo, Digitaria sanguinalis
In short: as §1

[23] = 20 g/ha, scored visually after 3 weeks vs untreated controls, 100% = plants have died, 0% = like control plants
[24] = 80 g/ha, scored visually after 3 weeks vs untreated controls (100% = plants have died, 0% = like control plants)

| Structure (SMILES) | Pre-emergence action against MATIN in % (MATIN [1]; dosage 20 g/ha) [%] | Pre-emergence action against MATIN in % (MATIN [1]; dosage 80 g/ha) [%] | Pre-emergence action against AVEFA in % (AVEFA [2]) [%] | Pre-emergence action against AMARE in % (AMARE [3]; [23]) [%] | Pre-emergence action against AMARE in % (AMARE [3]; [24]) [%] | Post-emergence action against SETVI in % (SETVI [4]; dosage 5 g/ha) [%] | Post-emergence action against SETVI in % (SETVI [4]; dosage 20 g/ha) [%] | Pre-emergence action against PHBPU in % (PHBPU [5]) [%] | Pre-emergence action against VIOTR in % (VIOTR [6]; dosage 20 g/ha) [%] | Pre-emergence action against VIOTR in % (VIOTR [6]; dosage 80 g/ha) [%] | Pre-emergence action against ECHCG in % (ECHCG [7]; 20 g/ha) [%] | Pre-emergence action against ECHCG in % (ECHCG [7]; 80 g/ha) [%] | Post-emergence action against VERPE in % (VERPE [8]) [%] | Post-emergence action at 20 g/ha against AVEFA in % (AVEFA [9]) [%] | Post-emergence action against ECHCG in % (ECHCG [10]; dosage 20 g/ha) [%] | Pre-emergence action against ABUTH (herbicidal activity) (ABUTH [11]) [%] | Pre-emergence action against ABUTH (herbicidal activity in percent) (ABUTH [11]) [%] | Post-emergence action against ALOMY in % (ALOMY [12]) [%] | Post-emergence action against PHBPU in % (PHBPU [13]; dosage 20 g/ha) [%] | Pre-emergence action against SETVI in % (SETVI [14]; dosage 20 g/ha) [%] | further results |
| --- | --- | --- | --- | --- | --- | --- | --- | --- | --- | --- | --- | --- | --- | --- | --- | --- | --- | --- | --- | --- | --- |
| CCNC(=O)c1c(C(F)(F)F)ccc(C(=O)Nc2nnnn2CC)c1OC [Example 2-57] | 90 | 100 | 90 | 100 | 100 | 100 | 100 | 80 | 100 | 100 | 90 | 100 | 90 | 80 | 100 | 100 | 100 | 90 | 90 | 80 | Post-emergence action against ECHCG in % (ECHCG [10]; dosage 5 g/ha): 100%; Post-emergence action against PHBPU in % (PHBPU [13]; dosage 5 g/ha): 80%; Pre-emergence action against SETVI in % (SETVI [14]; dosage 80 g/ha): 100%; Post-emergence action against ABUTH in % (ABUTH [15]; dosage 5 g/ha): 90%; Post-emergence action against ABUTH in % (ABUTH [15]; dosage 20 g/ha): 100%; Post-emergence action at 20 g/ha against AMARE in % (AMARE [16]): 100%; Pre-emergence action against POLCO in % (POLCO): 90%; Pre-emergence action against VERPE in % (VERPE [17]): 90%; Post-emergence action against VIOTR in % (VIOTR [18]; 5 g/ha): 90%; Post-emergence action against VIOTR in % (VIOTR [18]; 20 g/ha): 100%; Post-emergence action against DIGSA in % (DIGSA [19]; 5 g/ha): 90%; Post-emergence action against DIGSA (DIGSA [19]): 100%; Pre-emergence action against ALOMY (herbicidal activity) (ALOMY [20]): 90%; Post-emergence action against MATIN in % (MATIN [21]; dosage 5 g/ha): 80%; Post-emergence action against MATIN in % (MATIN [21]; dosage 20 g/ha): 90%; Pre-emergence action against DIGSA in % (DIGSA [22]; dosage 20 g/ha): 100%; Pre-emergence action against DIGSA in % (DIGSA [22]; dosage 80 g/ha): 100% |
| CCNC(=O)c1c(C(F)F)ccc(C(=O)Nc2nnnn2CC)c1Br [Example 2-226] | 90 | 100 | 100 | 100 | 100 | 100 | 100 | 100 | 100 | 100 | 100 | 100 | 90 | 80 | 90 | 80 | 80 | 90 | 80 | 80 | Pre-emergence action against SETVI in % (SETVI [14]; dosage 80 g/ha): 100%; Post-emergence action against ABUTH in % (ABUTH [15]; dosage 20 g/ha): 90%; Post-emergence action at 20 g/ha against AMARE in % (AMARE [16]): 100%; Pre-emergence action against POLCO in % (POLCO): 80%; Pre-emergence action against VERPE in % (VERPE [17]): 100%; Post-emergence action against VIOTR in % (VIOTR [18]; 5 g/ha): 90%; Post-emergence action against VIOTR in % (VIOTR [18]; 20 g/ha): 100%; Post-emergence action against DIGSA (DIGSA [19]): 80%; Pre-emergence action against ALOMY (herbicidal activity) (ALOMY [20]): 90%; Post-emergence action against MATIN in % (MATIN [21]; dosage 20 g/ha): 80% |
